Laboratory results taken from patent US10130693B2, “Peptides, combination of peptides and scaffolds for use in immunotherapeutic treatment of various cancers” (Immatics Biotechnologies GmbH, priority 2015, dated 2018).

Each substance was assayed on HLA-A*24 (assay: MHC binding assay, UV-ligand exchange with beta2m ELISA (exchange yield), HLA-A*24). Settings: binding to HLA-A*24, UV-ligand exchange.
Parameters: species or system human
Excerpt: Candidate peptides for T cell based therapies according to the present invention were further tested for their MHC binding capacity (affinity). The individual peptide-MHC complexes were produced by UV-ligand exchange, where a UV-sensitive peptide is cleaved upon UV-irradiation, and exchanged with the peptide of interest as analyzed. Only peptide candidates that can effectively bind and stabilize the peptide-receptive MHC molecules prevent dissociation of the MHC complexes. To determine the yield of the exchange reaction, an ELISA was performed based on the detection of the light chain (β2m) of stabilized MHC complexes. The assay was performed as generally described in Rodenko et al. (Rodenko et al., 2006).
96 well MAXISorp plates (NUNC) were coated over night with 2 ug/ml streptavidin in PBS at room temperature, washed 4× and blocked for 1 h at 37° C. in 2% BSA containing blocking buffer. […] Peptide-MHC monomers of the UV-exchange reaction were diluted 100 fold in blocking buffer. Samples were incubated for 1 h at 37° C., washed four times, incubated with 2 ug/ml HRP conjugated anti-β2m for 1h at 37° C., washed again and detected with TMB solution that is stopped with […]. Absorption was measured at 450 nm. Candidate peptides that show a high exchange yield (preferably higher than 50%, most preferred higher than 75%) are generally preferred for a generation and production of antibodies or fragments thereof, and/or T cell receptors or fragments thereof, as they show sufficient avidity to the MHC molecules and prevent dissociation of the MHC complexes.
In the case of “279 (VWLPASVLF; listed as Homo sapiens) [compound 279]”, the “Peptide exchange (MHC class I binding score, peptide exchange yield)” value (“Peptide exchange” for short) is reported as “+++ (50%-75% = +++)”.
With “280 (TYNPNLQDKL; listed as Homo sapiens) [compound 280]” the “Peptide exchange” value was “++++ (>=75% = ++++)”.
With “281 (NYSPGLVSLIL; listed as Homo sapiens) [compound 281]” the “Peptide exchange” value was “+++ (50%-75% = +++)”.
In the case of “282 (NYLVDPVTI; listed as Homo sapiens) [compound 282]”, the “Peptide exchange” value is reported as “+++ (50%-75% = +++)”.
“283 (EYQEIFQQL; listed as Homo sapiens) [compound 283]” was tested, and the “Peptide exchange” value was “+++ (50%-75% = +++)”.
For “284 (DYLKDPVTI; listed as Homo sapiens) [compound 284]”, the “Peptide exchange” value was “+++ (50%-75% = +++)”.
“285 (VYVGDALLHAI; listed as Homo sapiens) [compound 285]” was tested, and the “Peptide exchange” value was “+++ (50%-75% = +++)”.
“286 (SYGTILSHI; listed as Homo sapiens) [compound 286]” was tested, and the “Peptide exchange” value was “++++ (>=75% = ++++)”.
With “287 (IYNPNLLTASKF; listed as Homo sapiens) [compound 287]” the “Peptide exchange” value was “+++ (50%-75% = +++)”.
“288 (VYPDTVALTF; listed as Homo sapiens) [compound 288]” was tested, and the “Peptide exchange” value was “++ (20%-49% = ++)”.
“289 (FFHEGQYVF; listed as Homo sapiens) [compound 289]” was tested, and the “Peptide exchange” value was “++++ (>=75% = ++++)”.
In the case of “290 (KYGDFKLLEF; listed as Homo sapiens) [compound 290]”, the “Peptide exchange” value is reported as “++++ (>=75% = ++++)”.
With “291 (YYLGSGRETF; listed as Homo sapiens) [compound 291]” the “Peptide exchange” value was “+++ (50%-75% = +++)”.
With “292 (FYPQIINTF; listed as Homo sapiens) [compound 292]” the “Peptide exchange” value was “++++ (>=75% = ++++)”.
For “293 (VYPHFSTTNLI; listed as Homo sapiens) [compound 293]”, the “Peptide exchange” value was “++++ (>=75% = ++++)”.
With “294 (RFPVQGTVTF; listed as Homo sapiens) [compound 294]” the “Peptide exchange” value was “+++ (50%-75% = +++)”.
For “295 (SYLVIHERI; listed as Homo sapiens) [compound 295]”, the “Peptide exchange” value was “+++ (50%-75% = +++)”.
For “296 (SYQVIFQHF; listed as Homo sapiens) [compound 296]”, the “Peptide exchange” value was “++++ (>=75% = ++++)”.
With “297 (TYIDTRTVF; listed as Homo sapiens) [compound 297]” the “Peptide exchange” value was “++++ (>=75% = ++++)”.
For “298 (AYKSEVVYF; listed as Homo sapiens) [compound 298]”, the “Peptide exchange” value was “++++ (>=75% = ++++)”.
With “299 (KYQYVLNEF; listed as Homo sapiens) [compound 299]” the “Peptide exchange” value was “+++ (50%-75% = +++)”.
In the case of “300 (TYPSQLPSL; listed as Homo sapiens) [compound 300]”, the “Peptide exchange” value is reported as “+++ (50%-75% = +++)”.
In the case of “301 (KFDDVTMLF; listed as Homo sapiens) [compound 301]”, the “Peptide exchange” value is reported as “++++ (>=75% = ++++)”.
For “302 (LYLPVHYGF; listed as Homo sapiens) [compound 302]”, the “Peptide exchange” value was “+++ (50%-75% = +++)”.
“303 (LYSVIKEDF; listed as Homo sapiens) [compound 303]” was tested, and the “Peptide exchange” value was “+++ (50%-75% = +++)”.
“304 (EYNEVANLF; listed as Homo sapiens) [compound 304]” was tested, and the “Peptide exchange” value was “+++ (50%-75% = +++)”.
For “305 (NYENKQYLF; listed as Homo sapiens) [compound 305]”, the “Peptide exchange” value was “++++ (>=75% = ++++)”.
“306 (VYPAEQPQI; listed as Homo sapiens) [compound 306]” was tested, and the “Peptide exchange” value was “+++ (50%-75% = +++)”.
With “307 (GYAFTLPLF; listed as Homo sapiens) [compound 307]” the “Peptide exchange” value was “+++ (50%-75% = +++)”.
In the case of “308 (TFDGHGVFF; listed as Homo sapiens) [compound 308]”, the “Peptide exchange” value is reported as “+++ (50%-75% = +++)”.
With “309 (KYYRQTLLF; listed as Homo sapiens) [compound 309]” the “Peptide exchange” value was “++ (20%-49% = ++)”.
With “310 (IYAPTLLVF; listed as Homo sapiens) [compound 310]” the “Peptide exchange” value was “+++ (50%-75% = +++)”.
With “311 (EYLQNLNHI; listed as Homo sapiens) [compound 311]” the “Peptide exchange” value was “++++ (>=75% = ++++)”.
With “312 (SYTSVLSRL; listed as Homo sapiens) [compound 312]” the “Peptide exchange” value was “+++ (50%-75% = +++)”.
“313 (KYTHFIQSF; listed as Homo sapiens) [compound 313]” was tested, and the “Peptide exchange” value was “++++ (>=75% = ++++)”.
With “314 (RYFKGDYSI; listed as Homo sapiens) [compound 314]” the “Peptide exchange” value was “+++ (50%-75% = +++)”.
With “315 (FYIPHVPVSF; listed as Homo sapiens) [compound 315]” the “Peptide exchange” value was “+++ (50%-75% = +++)”.
With “316 (VYFEGSDFKF; listed as Homo sapiens) [compound 316]” the “Peptide exchange” value was “+++ (50%-75% = +++)”.
For “317 (VFDTSIAQLF; listed as Homo sapiens) [compound 317]”, the “Peptide exchange” value was “+++ (50%-75% = +++)”.
In the case of “318 (TYSNSAFQYF; listed as Homo sapiens) [compound 318]”, the “Peptide exchange” value is reported as “+++ (50%-75% = +++)”.
For “319 (KYSDVKNLI; listed as Homo sapiens) [compound 319]”, the “Peptide exchange” value was “++++ (>=75% = ++++)”.
“341 (SYLTQHQRI; listed as Homo sapiens) [compound 341]” was tested, and the “Peptide exchange” value was “+++ (50%-75% = +++)”.
For “342 (NYAFLHRTL; listed as Homo sapiens) [compound 342]”, the “Peptide exchange” value was “+++ (50%-75% = +++)”.
In the case of “343 (NYLGGTSTI; listed as Homo sapiens) [compound 343]”, the “Peptide exchange” value is reported as “+++ (50%-75% = +++)”.
In the case of “347 (VYAEVNSL; listed as Homo sapiens) [compound 347]”, the “Peptide exchange” value is reported as “+++ (50%-75% = +++)”.
In the case of “348 (IYLEHTESI; listed as Homo sapiens) [compound 348]”, the “Peptide exchange” value is reported as “+++ (50%-75% = +++)”.
With “352 (QYGGDLTNTF; listed as Homo sapiens) [compound 352]” the “Peptide exchange” value was “+++ (50%-75% = +++)”.
“355 (IYVTGGHLF; listed as Homo sapiens) [compound 355]” was tested, and the “Peptide exchange” value was “+++ (50%-75% = +++)”.
In the case of “357 (QFITSTNTF; listed as Homo sapiens) [compound 357]”, the “Peptide exchange” value is reported as “++++ (>=75% = ++++)”.
In the case of “361 (TYADIGGLDNQI; listed as Homo sapiens) [compound 361]”, the “Peptide exchange” value is reported as “+++ (50%-75% = +++)”.
“362 (VYNYAEQTL; listed as Homo sapiens) [compound 362]” was tested, and the “Peptide exchange” value was “++ (20%-49% = ++)”.
For “364 (KYLNENQLSQL; listed as Homo sapiens) [compound 364]”, the “Peptide exchange” value was “+++ (50%-75% = +++)”.
For “368 (KYQNVKHNL; listed as Homo sapiens) [compound 368]”, the “Peptide exchange” value was “+++ (50%-75% = +++)”.
“369 (VYTHEVVTL; listed as Homo sapiens) [compound 369]” was tested, and the “Peptide exchange” value was “+++ (50%-75% = +++)”.
With “370 (RFIGIPNQF; listed as Homo sapiens) [compound 370]” the “Peptide exchange” value was “+++ (50%-75% = +++)”.
With “372 (VYVIEPHSMEF; listed as Homo sapiens) [compound 372]” the “Peptide exchange” value was “+++ (50%-75% = +++)”.
For “373 (GYISNGELF; listed as Homo sapiens) [compound 373]”, the “Peptide exchange” value was “+++ (50%-75% = +++)”.
With “374 (VFLPRVTEL; listed as Homo sapiens) [compound 374]” the “Peptide exchange” value was “++ (20%-49% = ++)”.
For “375 (KYTDYILKI; listed as Homo sapiens) [compound 375]”, the “Peptide exchange” value was “+++ (50%-75% = +++)”.
For “376 (VYTPVASRQSL; listed as Homo sapiens) [compound 376]”, the “Peptide exchange” value was “+++ (50%-75% = +++)”.
With “377 (QYTPHSHQF; listed as Homo sapiens) [compound 377]” the “Peptide exchange” value was “+++ (50%-75% = +++)”.
In the case of “378 (VYIAELEKI; listed as Homo sapiens) [compound 378]”, the “Peptide exchange” value is reported as “+++ (50%-75% = +++)”.
